# Measurements published in US20060263802A1 (priority 2003, published 2006).
# Assays:
# Assay type in all cases: binding
# [1] = test system: human monoclonal antibody CRJB
# [2] = test system: human monoclonal antibody CR57
# [3] = test system: human monoclonal antibody CRJB; remark: listed apart in the source
# [4] = test system: human monoclonal antibody CR57; remark: listed apart in the source
# [5] = test system: human monoclonal antibody CRJA
# [6] = test system: human monoclonal antibody CRJA; remark: listed apart in the source
Sequence,Binding of CRJB to linear peptide (PEPSCAN-ELISA signal) [1],Binding of CR57 to linear peptide (PEPSCAN-ELISA signal) [2],Binding of CRJB (10 μg/ml) to looped/cyclic peptide (PEPSCAN-ELISA) [3],Binding of CR57 (10 μg/ml) to looped/cyclic peptide (PEPSCAN-ELISA) [4],Binding of CRJA to linear peptide (PEPSCAN-ELISA signal) [5],Binding of CRJA (10 μg/ml) to looped/cyclic peptide (PEPSCAN-ELISA) [6],Binding of CRJB (10 μg/ml) to looped/cyclic peptide (PEPSCAN-ELISA signal) [3],Binding of CR57 (10 μg/ml) to looped/cyclic peptide (PEPSCAN-ELISA signal) [4],Binding of CRJA (10 μg/ml) to looped/cyclic peptide (PEPSCAN-ELISA signal) [6],binding of antibody CR57 to linear peptide (PEPSCAN OD) [2],strength of binding of CR57 (OD value compared with the other peptides / twice the average value) [2]
AMQTSNETKWCPPDQ,114,104,58,84,85,90,,,,,
VIISPSVADLDPYDR,98,59,,,47,,82,90,100,,
GRCHPHVNGVFFNGI,113,117,102,110,100,104,,,,,
WNEILPSKGCLRVGG,136,102,98,112,98,96,,,,,
LRTVKTTKESLVIIS,104,65,,,83,,68,89,86,,
RSDEIEHLVVEELVR,138,100,93,136,93,107,,,,,
NLSGFSYMELKVGYI,115,61,,,94,,83,68,90,,
VIPLVHPLADPSTVF,141,69,92,77,92,84,,,,,
YTIFNKTLMEADAHY,147,104,79,119,90,108,,,,,
PGFGKAYTIFNKTLM,113,78,79,110,118,94,,,,,
VLGLRLMDGTWVAMQ,141,90,106,94,107,108,,,,,
PYPDYRWLRTVKTTK,93,65,,,84,,92,88,76,,
SDEIEHLVVEELVRK,117,101,85,96,97,99,,,,,
NLVVEDEGCTNLSGF,119,75,,,85,,92,106,74,,
KHFRPTPDACRAAYN,112,73,,,85,,72,70,41,,
VNLHDFRSDEIEHLV,129,83,56,97,103,84,,,,,
LVVEDEGCTNLSGFS,103,76,,,58,,82,76,104,,
TIWMPENPRLGMSCD,106,69,,,93,,82,97,102,,
GACKLKLCGVLGLRL,134,123,79,73,64,54,,,,bound,lower than twice the average value
MSCDIFTNSRGKRAS,110,46,,,71,,73,71,49,,
DRSLHSRVFPSGKCS,142,98,,,187,,100,91,99,,
VRKREECLDALESIM,181,58,66,105,111,101,,,,,
NEILPSKGCLRVGGR,130,104,111,104,97,105,,,,,
LGMSCDIFTNSRGKR,110,76,,,100,,105,102,104,,
PSGKCSGVAVSSTYC,112,56,,,106,,48,58,73,,
VVTEAENYTNFVGYV,106,87,,,90,,62,80,58,,
SPIDIHHLSCPNNLV,85,74,,,100,,72,94,92,,
ADLDPYDRSLHSRVF,121,70,,,100,,73,93,92,,
WCPPDQLVNLHDFRS,119,101,106,105,114,111,,,,,
